Results as given in the supplement of paper PMC10949913.

Legend:
Settings in all cases: 48 h
[1] = test system: CU-ACC2; assay: area under concentration-response curve (viability) (AUC (a.u.)); higher = less active
How it was run: (§1)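 Three adrenocortical carcinoma cell lines were exposed for 48 h to library compounds at 11 concentrations in 1,536-well plates, then read by CellTiter-Glo luminescence. Signals were scaled per plate against vehicle and empty-well controls. From fitted concentration-response curves of inhibitory or non-responding classes alone, AC50 and area under the curve were obtained.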

[2] = test system: NCI-H295R; assay: as above
How it was run: as §1

[3] = test system: CU-ACC1; assay: as above
How it was run: as §1

[4] = test system: NCI-H295R; assay: AC50 viability; higher = less potent
How it was run: as §1

Compound | area under concentration-response curve [1] | area under concentration-response curve [2] | area under concentration-response curve [3] | AC50 viability [4]
COc1cccc(-c2cc(F)ccc2C2Cc3nc(N)nc(C)c3C(=O)N2)n1 (stereo not drawn) | 413 | 403 | 379 | 0.59 µM
Cc1cc(Nc2nc(N[C@@H](C)c3ncc(F)cn3)ncc2Cl)n[nH]1 | 544 | 488 | 472 | 14.8 µM
O=C(NC1CC1)c1cccc(-c2ccc3c(NC(=O)C4CC4)n[nH]c3c2)c1 | 542 | 496 | 495 | 20.9 µM
COc1ccc(-n2c(SCCCN3C(=O)c4cccc5cccc(c45)C3=O)nnc2-c2ccncc2)cc1 | 406 | 406 | 422 | 3.32 µM
COc1cc(C(N)=O)ccc1NC(=O)[C@@H]1N[C@@H](CC(C)(C)C)[C@@]2(C(=O)Nc3cc(Cl)ccc32)[C@H]1c1cccc(Cl)c1F | 604 | 536 | 495 | 20.9 µM
O=C1S/C(=C\c2ccc(OCc3cccc(B(O)O)c3)cc2)C(=O)N1Cc1ccc(F)cc1 | 488 | 463 | 442 | 13.2 µM
CC(C)NC[C@@H](C(=O)N1CCN(c2ncnc3c2[C@H](C)C[C@H]3O)CC1)c1ccc(Cl)cc1 | 555 | 417 | 487 | 3.72 µM
CCn1c(-c2nonc2N)nc2c(C#CC(C)(C)O)ncc(OC[C@H]3CCCNC3)c21 | 524 | 442 | 369 | 4.17 µM
C[C@@H]1C[C@H]2[C@@H]3\C=C(C)/C4=C/C5=C(C[C@]4(C)[C@H]3[C@@H](O)C[C@]2(C)[C@@]1(O)C(=O)COC(C)=O)C=N[N]5C6=CC=CC=C6 | 608 | 529 | 513 | 20.9 µM
Cc1nc(NC(=O)N2CCCC2C(N)=O)sc1-c1ccnc(C(C)(C)C(F)(F)F)c1 (stereo not drawn) | 626 | 548 | 531 | 13.2 µM
CON(C)C(=O)N1/N=C(S[C@@]1(CCCN)C2=CC=CC=C2)/C3=CC(=CC=C3F)F | 517 | 348 | – | 2.09 µM
Cc1ccc(-c2nn(C(C)(C)CNC(=O)c3ccncc3)c3ncnc(N)c23)cc1 | – | 512 | 515 | 16.6 µM
COc1ccc(C(=O)c2c(C)n(CCN3CCOCC3)c3cc(I)ccc23)cc1 | – | 392 | 317 | 8.33 µM
CC1(C)C(=O)N(c2ccc(C#N)c(C(F)(F)F)c2)C(=S)N1Cc1ccc(-c2c[nH]nn2)cc1 | – | 483 | 472 | 20.9 µM
NC(=O)[C@H]1CCS[C@@H]2C[C@]3(CCCN3C(=O)Cc3ccc(NC(=O)COc4ccc(Cl)cc4Cl)cc3)C(=O)N12 | 528 | 483 | – | 14.8 µM
CCN(CC)CCCCNc1ncc2c(n1)N(C)C(=O)N(c1c(Cl)c(OC)cc(OC)c1Cl)C2 | – | 524 | 520 | 16.6 µM
C[C@@H]1CCNC(=O)c2cc3ccc(C(=O)Nc4nc5ccccc5n4CCCN(C)C)cc3n21 | – | 553 | 513 | 18.6 µM
Cc1cc(C(=O)N2CCN(c3cccc(Cl)c3)CC2)n(-c2ccccc2)n1 | 648 | 515 | – | 2.95 µM
CSc1ccc(C(=O)/C=C/c2cc(C)c(OC(C)(C)C(=O)O)c(C)c2)cc1 | – | 571 | 540 | 48.1 µM
Cc1ccc([C@@H]2O[C@H](CO)[C@@H](O)[C@H](O)[C@H]2O)cc1Cc1ccc(-c2ccc(F)cc2)s1 | – | 521 | – | 23.5 µM

Compound | area under concentration-response curve [1] | area under concentration-response curve [2] | area under concentration-response curve [3] | AC50 viability [4]
CCN(CC)CCCCNc1ncc2cc(-c3cc(OC)cc(OC)c3)c(NC(=O)NC(C)(C)C)nc2n1 | – | 476 | – | 23.5 µM
CCN(C)[S+](=O)([O-])Nc1ccc(F)c(C(=O)c2c[nH]c3ncc(-c4cnc(C5CC5)nc4)cc23)c1F | – | 502 | – | 18.6 µM
CC(=O)N1CCN(c2ccc(OC[C@H]3CO[C@](Cn4ccnc4)(c4ccc(Cl)cc4Cl)O3)cc2)CC1 | – | 342 | – | 20.9 µM
CC[C@H](C)[C@@H]([C@@H](CC(=O)N1CCC[C@H]1[C@H](OC)[C@@H](C)C(=O)N[C@@H](Cc1ccccc1)c1nccs1)OC)N(C)C(=O)[C@@H](NC(=O)[C@H](C(C)C)N(C)C)C(C)C | 363 | 344 | – | 33.2 µM
Cc1ncc(NC(=O)c2ccc(CN3CCN(C)CC3)c(C(F)(F)F)c2)cc1Nc1nccc(-c2cccnc2)n1 | – | 493 | – | 23.5 µM
COC(=O)Nc1nc2cc([S+]([O-])c3ccccc3)ccc2[nH]1 (stereo not drawn) | – | 522 | – | 11.8 µM
CCNC(=O)Nc1ccc(-c2nc3c(c(N4CCOC[C@@H]4C)n2)CCN(C2COC2)C3)cc1 | 561 | 520 | – | 4.68 µM
CC(C)[C@](O)(c1ccc2cc(OC(F)F)c(OC(F)F)cc2c1)c1c[nH]nn1 | – | 532 | 492 | 23.5 µM
CN(C)CC[C@H](CSc1ccccc1)Nc1ccc([S+](=O)([O-])NC(=O)c2ccc(N3CCN(Cc4ccccc4-c4ccc(Cl)cc4)CC3)cc2)cc1[N+](=O)[O-] | – | 535 | – | 18.6 µM
CN(C)CCNC(=O)NC[C@H]1CC[C@@H]2[C@H](O1)c1cc(C(F)(F)F)ccc1N[C@H]2c1ccccc1 | – | 437 | – | 5.9 µM
COc1cc(Oc2ccnc3cc(OC)c(OC)cc23)ccc1NC(=O)NC(C)c1nccs1 (stereo not drawn) | – | 540 | – | 14.8 µM
O=C(c1ccc(OCCN2CCCCC2)cc1)c1c(-c2ccc(O)cc2)sc2cc(O)ccc12 | – | 557 | – | 23.5 µM
CC(C)(O)CNc1nc(Nc2ccnc(C(F)(F)F)c2)nc(-c2cccc(C(F)(F)F)n2)n1 | – | 417 | 402 | 16.6 µM
COc1c(C)c2c(c(O)c1C/C=C(\C)CCC(=O)OCCN1CCOCC1)C(=O)OC2 | – | 429 | – | 0.468 µM
Cc1ccc(Sc2ccccc2N2CCNCC2)c(C)c1 | – | 455 | – | 20.9 µM
CC[C@]12\C=C/CN3CC[C@]4([C@@H](N(C)C5=CC(=C(C=C45)[C@]6(C[C@H]7C[C@H](CN(C7)CC8=C6[NH]C9=C8C=CC=C9)C(C)(F)F)C(=O)OC)OC)[C@](O)([C@@H]1OC(C)=O)C(=O)OC)[C@H]23 | – | 527 | 538 | 0.698 µM
Cc1cncc2cccc([S+](=O)([O-])N3CCCN(C(=O)CN)C[C@@H]3C)c12 | – | 433 | 465 | 16.6 µM
O=C(Nc1nc2cccc(-c3ccc(CN4CC[S+](=O)([O-])CC4)cc3)n2n1)C1CC1 | – | 535 | – | 18.6 µM
NCC(=O)Nc1ccc(-n2nc(C(F)(F)F)cc2-c2ccc3c(ccc4ccccc43)c2)cc1 | – | 551 | – | 23.5 µM
